From patent US4255585A, “Benzoheterocyclic derivatives of phenoxyacetic acid” (Centre European de Recherches Pharmacologique, priority 1975, dated 1981)
Where two headings read alike, the source gives them in different places.

Experiments:
[1] = Diuretic activity (diuresis, Na+, K+, uric acid excretion); assay type: in vivo, Male Swiss C.D. mice; conditions: mice; for Uricosuria (coefficient): uric acid by Caraway's method; for Diuresis (coefficient) / K+ (coefficient) / Na+ (coefficient) / Na+/K+: urine sampled 2 and 4 hours
Protocol: The three compounds were administered to Male Swiss C.D. mice of average weight 22 g. The animals were deprived of food and drink for 2 hours prior to treatment.
The animals were grouped two by two in cages where their metabolism is to be monitored. Sampling of the urine 2 and 4 hours after treatment. The experiments were made per lot of six pairs. The products were administered at constant volume.
The following determinations were made:
Na^+ and K^+ ions expressed in milliequivalents (Millival or M. Eq.) excreted in 2 or 4 hours (Eppendorf Flame Photometer);
uric acid excreted expressed in mg/2 or 4 hours determined by Caraway's method (Amer. J. Clin. Pathol. 1955. 25 840).
They are considered in the form of the coefficient: [formula]

in vivo = conditions: for LD50 at 48 h: mouse, in vivo, po, read-out: LD 50 per os
Protocol: The three compounds were administered in the usual way to lots of 10 male mice (Swiss C.D.) of average weight 20 g. Mortality was assessed after 48 hours for toxicity per os.

[2] = male Swiss C.D. mice, per os, mortality after 48 hours

Compound	Uricosuria (coefficient) ([1]; 100 mg/kg P.O.)	Diuresis (coefficient) ([1]; 100 mg/kg P.O.)	K+ (coefficient) ([1]; 100 mg/kg P.O.)	Na+ (coefficient) ([1]; 100 mg/kg P.O.)	Na+/K+ ([1]; 100 mg/kg P.O.)	LD50 at 48 h (in vivo; [2]) [mg/kg]	MLD per os (in vivo; [2]) [mg/kg]	LD50 at 48 h (in vivo) [mg/kg]	Uricosuria (coefficient) ([1]; 20 mg/kg P.O.)	Diuresis (coefficient) ([1]; 20 mg/kg P.O.)	K+ (coefficient) ([1]; 20 mg/kg P.O.)	Na+ (coefficient) ([1]; 20 mg/kg P.O.)	Na+/K+ ([1]; 20 mg/kg P.O.)
O=C(O)COc1ccc(C(=O)c2cc3ccccc3o2)c(Cl)c1Cl [Example 1, 4-(2-benzofuryl-keto)-2,3-dichloro-phenoxyacetic acid]	1.56	1.3	1.74	1.52	0.87	< 1000							
O=C(O)COc1ccc(C(=O)c2cc3ccccc3s2)c(Cl)c1Cl [Example 2, 4-(2-benzothienyl-keto)-2,3-dichloro-phenoxyacetic acid]	1.05	1.2	0.91	1.18	1.29		> 1000						
O=C(O)COc1ccc(C(=O)c2sc3ccccc3c2Cl)c(Cl)c1Cl [Example 3, 4-[2-(3-chloro)-benzothienyl-keto]-2,3-dichloro-phenoxy acetic acid]	1.26	1.3	1.17	1.29	1.10			> 1000					
CCc1oc2ccccc2c1C(=O)c1cc(I)c(O)c(I)c1 [benziodarone, reference compound]									1.44				
C=C(CC)C(=O)c1ccc(OCC(=O)O)c(Cl)c1Cl [ethacrynic acid, reference compound]						600			1.27	2.4	1.48	2.76	1.87
NS(=O)(=O)c1cc(C(=O)O)c(NCc2ccco2)cc1Cl [furosemide, reference compound]									1.34	3.0	1.51	4.28	2.83
